Tests used:
hM4 muscarinic receptor = biological target: T1, hM4 muscarinic receptor (Homo sapiens, UniProt P08173); assay: Radioligand binding assay for muscarinic receptors ([3H]-NMS displacement); details: M4 muscarinic receptor subtype, CHO cell membranes, [3H]-NMS 1 nM
T1 construct: expressed in transfected cells; host or cells: CHO
T1 sequence (P08173 1-479): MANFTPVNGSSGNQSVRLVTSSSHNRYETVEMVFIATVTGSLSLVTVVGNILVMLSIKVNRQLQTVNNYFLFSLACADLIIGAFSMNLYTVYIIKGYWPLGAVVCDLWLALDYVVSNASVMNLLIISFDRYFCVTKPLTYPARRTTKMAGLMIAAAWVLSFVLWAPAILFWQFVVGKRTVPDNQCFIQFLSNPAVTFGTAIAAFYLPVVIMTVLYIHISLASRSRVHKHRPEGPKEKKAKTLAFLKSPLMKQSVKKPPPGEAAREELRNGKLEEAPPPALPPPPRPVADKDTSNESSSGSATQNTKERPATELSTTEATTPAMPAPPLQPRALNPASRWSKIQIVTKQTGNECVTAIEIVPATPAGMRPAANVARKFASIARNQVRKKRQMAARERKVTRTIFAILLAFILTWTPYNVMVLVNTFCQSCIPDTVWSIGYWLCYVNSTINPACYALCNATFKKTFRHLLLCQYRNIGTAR
Procedure: (§1) CHO cell lines stably expressing cloned human hM1, hM2, hM3 and hM4 muscarinic receptor subtypes, respectively, were grown to near confluency in Hams F-12 media supplemented with 10% FBS and 250 μg/mL Geneticin. The cells were grown in a 5% CO2, 37° C. incubator and lifted with 2 mM EDTA in dPBS. Cells were collected by 5 minute centrifugation at 650×g, and cell pellets were either stored frozen at −80° C. or membranes were prepared immediately for use. For membrane preparation, cell pellets were resuspended in lysis buffer and homogenized with a Polytron PT-2100 tissue disrupter (Kinematica AG; 20 seconds×2 bursts). Crude membranes were centrifuged at 40,000×g for 15 minutes at 4° C. The membrane pellet was then resuspended with re-suspension buffer and homogenized again with the Polytron tissue disrupter. The protein concentration of the membrane suspension was determined by the method described in Lowry et al., 1951, Journal of Biochemistry, 193, 265. All membranes were stored frozen in aliquots at −80° C. or used immediately. Aliquots of prepared hM5 receptor membranes were purchased directly from PerkinElmer, Inc. (Wellesley, Mass.) and stored at −80° C. until use.
(§2) Radioligand binding assays for cloned muscarinic receptors were performed in 96-well microtiter plates in a total assay volume of 100 μL. CHO cell membranes stably expressing either the hM1, hM2, hM3, hM4 or hM5 muscarinic subtype were diluted in assay buffer to the following specific target protein concentrations (μg/well): 10 μg for hM1, 10-15 μg for hM2, 10-20 μg for hM3, 10-20 μg for hM4, and 10-12 μg for hM5 to get similar signals (cpm). The membranes were briefly homogenized using a Polytron tissue disrupter (10 seconds) prior to assay plate addition. Saturation binding studies for determining KD values of the radioligand were performed using L-[N-methyl-^3H]scopolamine methyl chloride ([^3H]-NMS) (TRK666, 84.0 Ci/mmol, Amersham Pharmacia Biotech, Buckinghamshire, England) at concentrations ranging from 0.001 nM to 20 nM. Displacement assays for determination of Ki values of test compounds were performed with [^3H]-NMS at 1 nM and eleven different test compound concentrations. The test compounds were initially dissolved to a concentration of 400 μM in dilution buffer and then serially diluted 5× with dilution buffer to final concentrations ranging from 10 pM to 100 μM. The addition order and volumes to the assay plates were as follows: 25 μL radioligand, 25 μL diluted test compound, and 50 μL membranes. Assay plates were incubated for 60 minutes at 37° C. Binding reactions were terminated by rapid filtration over GF/B glass fiber filter plates (PerkinElmer, Inc.) pre-treated in 1% BSA. Filter plates were rinsed three times with wash buffer (10 mM HEPES) to remove unbound radioactivity. The plates were then air-dried and 50 μL Microscint-20 liquid scintillation fluid (PerkinElmer, Inc.) were added to each well. The plates were then counted in a PerkinElmer Topcount liquid scintillation counter (PerkinElmer, Inc.). Binding data were analyzed by nonlinear regression analysis with the GraphPad Prism Software package (GraphPad Software, Inc., San Diego, Calif.) using the one-site competition model. Ki values for test compounds were calculated from observed IC50 values and the KD value of the radioligand using the Cheng-Prusoff equation (Cheng Y; Prusoff W H. (1973) Biochemical Pharmacology, 22(23):3099-108). […]

hM1 muscarinic receptor = biological target: T2, hM1 muscarinic receptor (Homo sapiens, UniProt P11229); assay: as above; details: M1 muscarinic receptor subtype, CHO cell membranes, [3H]-NMS 1 nM
T2 construct: expressed in transfected cells; host or cells: CHO
T2 sequence (P11229 1-460): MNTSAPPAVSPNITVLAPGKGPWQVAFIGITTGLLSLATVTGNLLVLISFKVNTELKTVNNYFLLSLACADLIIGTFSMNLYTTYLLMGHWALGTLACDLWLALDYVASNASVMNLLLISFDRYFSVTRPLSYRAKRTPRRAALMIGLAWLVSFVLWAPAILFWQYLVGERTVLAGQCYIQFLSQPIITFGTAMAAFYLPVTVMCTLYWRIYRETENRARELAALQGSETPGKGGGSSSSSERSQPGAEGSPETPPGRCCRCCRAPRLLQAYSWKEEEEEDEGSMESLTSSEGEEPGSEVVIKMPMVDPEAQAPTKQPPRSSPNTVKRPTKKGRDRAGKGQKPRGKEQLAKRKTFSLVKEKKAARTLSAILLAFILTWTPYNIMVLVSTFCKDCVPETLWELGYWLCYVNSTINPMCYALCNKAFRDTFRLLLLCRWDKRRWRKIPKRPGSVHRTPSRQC
Procedure: as §1, §2

Ki (hM4 muscarinic receptor): < 10 nM | Ki (hM1 muscarinic receptor): < 10 nM
Structure (SMILES): Cc1cc(NC(=O)CCN2CCC(OC(=O)Nc3ccccc3-c3ccccc3)CC2)c(C)cc1CNC[C@H](O)c1ccc(O)c(NC=O)c1 [compound of formula I, biphenyl-2-ylcarbamic acid 1-[2-(4-{[(R)-2-(3-formylamino-4-hydroxyphenyl)-2-hydroxyethylamino]methyl}-2,5-dimethylphenylcarbamoyl)ethyl]-piperidin-4-yl ester]

From patent US7880010B2, “Crystalline forms of a dimethylphenyl compound” (Theravance, Inc., priority 2006, dated 2011)
